Reference: US20220023271A1, “COMPOSITION FOR PREVENTING OR TREATING CELLULAR SENESCENCE-RELATED DISEASES COMPRISING ZOTAROLIMUS AS ACTIVE INGREDIENT” (RESEARCH COOPERATION FOUNDATION OF YEUNGNAM UNIVERSITY, priority 2018, published 2022)

How the values were obtained:
Type in all cases: cell-based
[1] = test system: human retinal pigmented epithelial cells (ARPE-19); assay: CCK-8 cell growth analysis in retinal pigmented epithelial cells; conditions: young vs senescent retinal pigmented epithelial cells; concentration-dependent
Procedure: Each cell was treated in a serum-free culture solution containing 0.5 μM doxorubicin for 4 hours. After washing the cells with a serum-free culture solution, the cells were cultured for 4 days in a culture solution containing 10% FBS, and then cellular aging was confirmed by staining with senescence-associated beta galactosidase (SAβG). After each sample was dissolved in DMSO, young cells, replicative senescent cells, and premature senescent cells treated with doxorubicin were treated with 100 nM zotarolimus, 100 nM rapamycin, 100 nM ABT263, respectively. After incubation for 4 days in a 37° C., 5% CO2 incubator, the degree of cell growth was confirmed by CCK-8 analysis, the degree of cellular aging was confirmed by senescence-related beta-galactosidase (SAβG) staining, Young cells (1×10^3 cells/well) or senescent cells (2×10^3 cells/well) were dispensed into a 96-well plate, and cultured overnight in a 37° C., 5% CO2 incubator. Zotarolimus, ABT263 and rapamycin were treated at each concentration, and then incubated for 4 days in a 37° C., 5% CO2 incubator. […] Then, the absorbance was measured at 450 nm using a microplate reader. The degree of cell growth was expressed as a relative value for the absorbance of the control group treated with only DMSO as 100%. […]

[2] = test system: human dermal fibroblasts (HDF); assay: CCK-8 cell growth analysis in human fibroblasts
Procedure: Each cell was treated in a serum-free culture solution containing 0.5 μM doxorubicin for 4 hours. After washing the cells with a serum-free culture solution, the cells were cultured for 4 days in a culture solution containing 10% FBS, and then cellular aging was confirmed by staining with senescence-associated beta galactosidase (SAβG). After dispensing 2×10^5 cells in a 100 mm culture dish, they were cultured in a 37° C., 5% CO2 incubator. When the cells grew to 80-90% in the culture dish, the cells were removed by treatment with trypsin-EDTA, and the number of cells was measured, and the cell population doubling time (PDT) was measured. After each sample was dissolved in DMSO, young cells, replicative senescent cells, and premature senescent cells treated with doxorubicin were treated with 100 nM zotarolimus, 100 nM rapamycin, 100 nM ABT263, respectively. […] Then, the absorbance was measured at 450 nm using a microplate reader. The degree of cell growth was expressed as a relative value for the absorbance of the control group treated with only DMSO as 100%. […]

[3] = test system: human umbilical vascular endothelial cells (HUVEC); assay: LDH activity in cell culture solution of vascular endothelial cells; conditions: young and replicative senescent HUVEC; 4 days
Procedure: Cytotoxicity against young and senescent cells was investigated with a lactate dehydrogenase (LDH) activity kit (Dojindo Molecular Technologies Inc.).
Young cells (1×10^3 cells/100 μl/well) or senescent cells (2×10^3 cells/100 μl/well) were dispensed into a 96-well plate, and then cultured overnight in a 37° C., 5% CO2 incubator. Zotarolimus and ABT263 were treated at each concentration, and then incubated for 4 days in a 37° C., 5% CO2 incubator.
After transferring the cell culture solution to a 1.5 ml tube, it was centrifuged at 4° C. and 12,000 rpm. 100 μl of the supernatant was dispensed into a 96-well plate, and 100 μl of the LDH measurement solution was added to each well, followed by reaction in a CO2 incubator for 30 minutes.
50 μl of the LDH reaction stop solution was added, and absorbance was measured at 490 nm using a microplate reader. The level of LDH activity was expressed as a relative value based on the absorbance of the control group treated with only DMSO.
In order to confirm whether the decrease in cell growth caused by zotarolimus as described above was due to cell death, LDH activity was investigated in the cell culture solution.

[4] = test system: human tubular epithelial cell (HK2); assay: SAβG activity staining in premature senescent HK2 cells; conditions: premature senescent HK2 cells by doxorubicin; 100 nM, 4 days
Procedure: Each cell was treated in a serum-free culture solution containing 0.5 μM doxorubicin for 4 hours. After washing the cells with a serum-free culture solution, the cells were cultured for 4 days in a culture solution containing 10% FBS, and then cellular aging was confirmed by staining with senescence-associated beta galactosidase (SAβG). After each sample was dissolved in DMSO, young cells, replicative senescent cells, and premature senescent cells treated with doxorubicin were treated with 100 nM zotarolimus, 100 nM rapamycin, 100 nM ABT263, respectively. After incubation for 4 days in a 37° C., 5% CO2 incubator, the degree of cell growth was confirmed by CCK-8 analysis, the degree of cellular aging was confirmed by senescence-related beta-galactosidase (SAβG) staining, The cells were washed with 1× phosphate buffer solution, and fixed with a phosphate buffer solution containing 3.7% (v/v) paraformaldehyde. After adding 1 mg/ml 5-bromo-4-chloro-3-indolyl-6-D-galactoside, 40 mM citric acid-sodium phosphate (pH 6.0), 5 mM potassium ferricyanide, 5 mM potassium ferrocyanide, 150 mM NaCl, and 2 mM MgCl2 solution, it was reacted at 37° C. for 18 hours. It was stained with eosin as a control stain. Cells stained blue in the cytoplasm were identified using an optical microscope. […]

## CO[C@H]1C[C@@H]2CC[C@@H](C)[C@@](O)(O2)C(=O)C(=O)N2CCCC[C@H]2C(=O)O[C@H]([C@H](C)C[C@@H]2CC[C@H](n3cnnn3)[C@H](OC)C2)CC(=O)[C@H](C)/C=C(\C)[C@@H](O)[C@@H](OC)C(=O)[C@H](C)C[C@H](C)/C=C/C=C/C=C/1C [zotarolimus]
[1]
  cell growth with increasing concentrations of zotarolimus: significantly decreased in senescent cells compared to young cells
[2]; premature senescent fibroblasts by doxorubicin, 100 nM, 4 days, vs DMSO
  cell growth (CCK-8): significantly decreased
[2]; young vs replicative senescent fibroblasts, concentration-dependent
  cell growth with increasing concentration of zotarolimus: more markedly decreased in senescent cells compared to young cells
[3]
  LDH activity in the cell culture solution: no difference in LDH activity
[4]
  SAβG staining: decreased
